Measurements reported in PMC9338108 (Clinical Drug Investigation, 2022).
“And” between values parts separate entries of the source, which are not always exact repeats. Equal entries are not always repeated. Where two headings read alike, the source gives them in different places.

How the values were obtained:
[1] = Safety assessment Study 114; assay type: in vivo, human; details: Study 114, N = 20
[2] = cited from earlier work
clinical = details: human, plasma
[3] = Safety assessment Study 106 Part A; details: for TEAEs related to individual study drugs: N = 33
[4] = assay type: in vivo, human
[5] = Safety assessment Study 106 Part B; details: N = 24
[6] = assay type: in vivo, human; remark: listed apart in the source
[7] = assay type: in vivo, human; remark: listed apart in the source
[8] = test system: P-glycoprotein transporter; details: ref data on file, G1 Therapeutics; cited from earlier work
cytochrome P450 3A4 = details: background statement; cited from earlier work
[9] = ref data on file, G1 Therapeutics; cited from earlier work
[10] = cited from earlier work; remark: listed apart in the source
[11] = metformin 1000 mg oral single dose alone, urine, N = 25, geometric mean (CV%)
[12] = trilaciclib vs trilaciclib alone
[13] = all resolved without intervention

In the case of `CCC(C)n1ncn(-c2ccc(N3CCN(c4ccc(OCC5COC(Cn6cncn6)(c6ccc(Cl)cc6Cl)O5)cc4)CC3)cc2)c1=O` (centres unmarked) [Itraconazole, itraconazole, reference compound], the “TEAEs related to individual study drugs” value [1] is reported as 2 (10.0) n (%).

For `CN(C)C(=N)N=C(N)N` [Metformin, metformin], the Tmax (metformin 1000 mg oral single dose alone, N = 25, median (range)) was 2.50 (1.50–5.00) h, the “Ae (total amount of drug excreted in urine)” value [11] was 342 (25.1) mg and the “Fe (percentage of drug excreted in urine)” value [11] was 34.2 (25.1) %. The “geometric mean AUC0–inf higher after coadministration with trilaciclib” value (metformin vs metformin alone) was 64.6%, the “geometric mean AUC0–last higher after coadministration with trilaciclib” value (metformin vs metformin alone) was 66.0% and the “geometric mean Cmax higher after coadministration with trilaciclib” value (metformin vs metformin alone) was 79.8%. For the same compound, the “AUC0–24 as share of AUC0–inf” value [2] was “approximately 95%”, the Vd/F (clinical; oral) was 556 L and the AUC(0-inf) (clinical; po, 1000 mg) was 11900 ng·h/mL. For the same compound, the Cmax (clinical; po, 1000 mg) was 1650 ng/mL and the “TEAEs related to individual study drugs” value [3] was 7 (21.2) n (%).

With `Cc1ncc2n1-c1ccc(Cl)cc1C(c1ccccc1F)=NC2` [Midazolam, midazolam] the Vd/F ([4]; human, plasma, oral) was 658 L, the AUC(0-inf) ([4]; human, plasma, po, 5 mg) was 64.6 ng·h/mL and the AUC(0-t) ([4]; human, plasma, po, 5 mg) was 62.1 ng·h/mL. For the same compound, the Cmax ([4]; human, plasma, po, 5 mg) was 24.4 ng/mL, the Vd/F ([4]; human, plasma, po, 5 mg) was 635 L and the half-life ([4]; human, plasma, po, 5 mg) was 341 min. The CL/F ([4]; midazolam 5 mg oral single dose alone, N = 25, geometric mean (CV%)) was 77.4 (34.2) L/h, the Tmax ([4]; midazolam 5 mg oral single dose alone, N = 25, median (range)) was 0.50 (0.25–1.50) h and the “Cmax decrease after multiple IV doses of trilaciclib” value ([4]; midazolam vs midazolam alone) was 16.6%. The “geometric mean AUC0–inf higher after coadministration with trilaciclib” value ([4]; midazolam vs midazolam alone) was 4.6%, the “geometric mean AUC0–last higher after coadministration with trilaciclib” value ([4]; midazolam vs midazolam alone) was 4.0% and the “TEAEs related to individual study drugs” value [3] was 16 (48.5) n (%).

For `CO[C@H]1/C=C/O[C@@]2(C)Oc3c(C)c(O)c4c(O)c(c(/C=N/N5CCN(C)CC5)c(O)c4c3C2=O)NC(=O)/C(C)=C\C=C\[C@H](C)[C@H](O)[C@@H](C)[C@@H](O)[C@@H](C)[C@H](OC(C)=O)[C@@H]1C` [Rifampin, rifampin, reference compound], the “TEAEs related to individual study drugs” value [5] was 19 (79.2) n (%).

Work on `CN1CCN(c2ccc(Nc3ncc4cc5n(c4n3)C3(CCCCC3)CNC5=O)nc2)CC1` [Trilaciclib, trilaciclib] yielded a Tmax ([6]; human, plasma, intravenous) of 30 min, a clearance ([6]; human, plasma, intravenous) of 3520 mL/min and an AUC(0-inf) ([6]; human, plasma, iv, 240 mg/m2) of 2700 ng·h/mL. For the same compound, the AUC(0-t) ([6]; human, plasma, iv, 240 mg/m2) was 2670 ng·h/mL, the Cmax ([6]; human, plasma, iv, 240 mg/m2) was 1600 ng/mL and the Tmax ([6]; human, plasma, iv, 240 mg/m2) was 25.2 min. For the same compound, the clearance ([6]; human, plasma, iv, 240 mg/m2) was 2920 mL/min, the half-life ([6]; human, plasma, iv, 240 mg/m2) was 606 min and the “geometric mean AUC0–inf decrease with rifampin” value [6, 12] was 17.3% and 17%. The “geometric mean AUC0–last decrease with rifampin” value [6, 12] was 17.3%, the “geometric mean Cmax reduction with rifampin” value [6, 12] was 19.9% and the Tmax ([7]; human, plasma, intravenous) was 28.8 min. For the same compound, the AUC(0-inf) ([7]; human, plasma, iv, 200 mg/m2) was 3120 ng·h/mL, the AUC(0-t) ([7]; human, plasma, iv, 200 mg/m2) was 3070 ng·h/mL and the Cmax ([7]; human, plasma, iv, 200 mg/m2) was 1770 ng/mL. It also gave a Tmax ([7]; human, plasma, iv, 200 mg/m2) of 24 min, a clearance ([7]; human, plasma, iv, 200 mg/m2) of 2120 mL/min and a half-life ([7]; human, plasma, iv, 200 mg/m2) of 547 min. The “geometric mean AUC0–inf decrease with itraconazole” value [7, 12] was 14.0% and 13.6%, the “geometric mean AUC0–last decrease with itraconazole” value [7, 12] was 13.3% and the “geometric mean Cmax decrease with itraconazole” value [7, 12] was 28.0%. For the same compound, the “TEAEs related to individual study drugs” value [1] was 9 (45.0) n (%), the “substrate of the P-glycoprotein transporter” value [8] was “substrate of the P-glycoprotein transporter” and the “time-dependent inhibitor of cytochrome P450 3A4” value (cytochrome P450 3A4) was “time-dependent inhibitor of cytochrome P450 3A4”. The “unbound fraction in plasma” value [9] was “approximately 30%”, the clearance [10] was 158 L/h and the “mean terminal half-life (t1/2)” value [10] was “approximately 14 h”. For the same compound, the “parent molecule recovered in the excreta” value [10] was “less than 10%”, the “TEAEs related to individual study drugs” value [5] was 20 (83.3) n (%) and the “subjects reporting TEAEs of thrombophlebitis” value ([3]; 25 subjects enrolled after adjustment of drug administration) was 24%. The “TEAEs related to individual study drugs” value [3] was 33 (100) n (%), the “subjects with Grade 3 TEAEs of neutropenia related to trilaciclib” value [3, 13] was 5 n and the “subjects with Grade 4 TEAEs of neutropenia related to trilaciclib” value [3, 13] was 1 n. For the same compound, the “subjects discontinued because of phlebitis in the arm related to trilaciclib administration” value ([3]; initial eight subjects (Site 1)) was “eight”.
